Source: US20210115104A1, “AMYLIN ANALOGUES” (Zealand Pharma A/S, priority 2015, published 2021)
*1 amine or outer side, *2 acyl side, *3 side chain or, on linkers, in order; H or OH if unused. Where a SMILES comes first, the peptide text is derived from it. Bridges are numbered along the chain shown (N, C = ends). [ ]: non-standard residue; d: D form. The star is where a group is joined. C20 diacid = O=C(O)CCCCCCCCCCCCCCCCCCC(=O)*; Pro(4R-NH2) = N[C@H]1CN[C@H](C(=O)O)C1; γGlu = O=C(O)[C@H](CCC(=O)[*:2])N[*:1]; NMeI = CC[C@H](C)[C@H](NC)C(=O)O; Sar = CNCC(=O)O

Assays:
[1] = Assessment of physical stability (Thioflavin T fibrillation); assay type: physicochemical; design: key: FND = fibrillation not detected; FD = fibrillation detected; settings: 1 mg/ml, 40° C., ThT; for Fibrillation pH 4.0 (Ac): 50 mM acetate buffer pH 4.0, 96 hours; for Fibrillation pH 7.0 (His): 50 mM histidine buffer pH 7.0, 96 hours; for Fibrillation pH 7.0 (Phos.): 50 mM phosphate buffer pH 7.0, 96 hours
Experimental: Solutions containing (i) 1 mg/ml of test peptide, 40 μM ThT and 50 mM phosphate (Ph) buffer (pH 7.0), (ii) 1 mg/ml of test peptide, 40 μM ThT and 50 mM histidine (His) buffer (pH 7.0), and (iii) 1 mg/ml of test peptide, 40 μM ThT and 50 mM acetate (Ac) buffer (pH 4.0), were loaded in a 96-well black fluorescence plate (clear bottom) in triplicate. Data were collected at fixed intervals of 10 min, each preceded by 300 s of automixing (agitation), over a period of 96 hours at 40° C. Physical stability, expressed as lag-time of fibril formation (in hours), was defined as the intersection between two linear regressions representing the initial stable phase and the growth phase.

[2] = Assessment of chemical stability (RP-HPLC normalized purity); assay type: physicochemical; settings: for Normalized purity after 7 days, 40° C., pH 4: pH 4, 0.2 mg/ml; for Normalized purity after 7 days, 40° C., pH 4 / Normalized purity after 7 days, 40° C., pH 7.5 / Normalized purity after 7 days, 40° C., pH 9: Table 1; for Normalized purity after 7 days, 40° C., pH 7.5: pH 7.5, 0.2 mg/ml; for Normalized purity after 7 days, 40° C., pH 9: pH 9, 0.2 mg/ml
Experimental: Samples of each test peptide were dissolved in MilliQ™ water, and the pH of the solution was adjusted to pH 4, pH 6, pH 7.5 or pH 9, respectively, using either HCl or NaOH. The final peptide concentration was 0.2 mg/ml. Samples were placed in glass vials and incubated at 40° C. The samples were analyzed by RP-HPLC on a C8 column with gradient elution using an ammonium formate/water eluent system, or on a C18 column with gradient elution using a trifluoroacetic acid/water eluent system. The area-percentage (area-%) of the main peak after incubation time T=t (relative to time T=0) was determined by UV spectroscopy at 220 nm.
The purity was first determined as follows:
Purity(area-%)=(area of main peak/total area of all peaks)×100.
The purity was then normalized between time points by setting purity at time 0 (T=0) to 100 for each pH value for a given peptide, as follows:
Normalised area-% at time t (T=t)=[area-%(T=t)/area-%(T=0)]×100.
The normalized purity values in Table 1 were determined after 7 days of incubation.
The chemical stability assessment described in Example 6 was repeated for four pairs of compounds, each differing only by the presence or absence of an Asn-Asn (N—N) doublet at positions 21 and 22.

| Structure (SMILES) | Fibrillation pH 4.0 (Ac) [1] | Fibrillation pH 7.0 (His) [1] | Fibrillation pH 7.0 (Phos.) [1] | Normalized purity after 7 days, 40° C., pH 4 [2] | Normalized purity after 7 days, 40° C., pH 7.5 [2] | Normalized purity after 7 days, 40° C., pH 9 [2] | Normalized purity pH 4 (Table 5) ([2]; pH 4, repeat of Example 6 for pairs with/without Asn-Asn at 21-22) | Normalized purity pH 6 (Table 5) ([2]; pH 6, repeat of Example 6 for pairs with/without Asn-Asn at 21-22) | Normalized purity pH 7.5 (Table 5) ([2]; pH 7.5, repeat of Example 6 for pairs with/without Asn-Asn at 21-22) | Normalized purity pH 9 (Table 5) ([2]; pH 9, repeat of Example 6 for pairs with/without Asn-Asn at 21-22) |
| --- | --- | --- | --- | --- | --- | --- | --- | --- | --- | --- |
| CC[C@H](C)[C@@H](C(=O)N[C@@H](CC(C)C)C(=O)N[C@@H](CO)C(=O)N[C@@H](CO)C(=O)N[C@H](C(=O)N[C@@H](CC(N)=O)C(=O)N[C@H](C(=O)NCC(=O)N[C@@H](CO)C(=O)N[C@@H](CC(N)=O)C(=O)N[C@H](C(=O)N1C[C@H](N)C[C@H]1C(N)=O)[C@@H](C)O)C(C)C)[C@@H](C)O)N(C)C(=O)[C@H](C)NC(=O)CN(C)C(=O)[C@H](Cc1ccccc1)NC(=O)[C@H](CC(N)=O)NC(=O)[C@H](CC(N)=O)NC(=O)[C@H](CO)NC(=O)[C@H](CO)NC(=O)[C@H](CCCNC(=N)N)NC(=O)[C@H](Cc1c[nH]cn1)NC(=O)[C@H](CC(C)C)NC(=O)[C@H](Cc1ccccc1)NC(=O)[C@H](Cc1c[nH]cn1)NC(=O)[C@H](C)NC(=O)[C@H](CC(C)C)NC(=O)[C@H](CCCNC(=N)N)NC(=O)[C@H](CCC(N)=O)NC(=O)[C@@H](NC(=O)[C@H](C)NC(=O)[C@@H]1CSSC[C@H](NC(=O)[C@H](CCCNC(=N)N)NC(=O)CC[C@H](NC(=O)CCCCCCCCCCCCCCCCCCC(=O)O)C(=O)O)C(=O)N[C@@H](CC(N)=O)C(=O)N[C@@H]([C@@H](C)O)C(=O)N[C@@H](C)C(=O)N[C@@H]([C@@H](C)O)C(=O)N1)[C@@H](C)O [Compound 5, [19CD]-isoGlu-R-C( )-NTAT-C( )-ATQRLAHFLHRSSNNF-Gly(Me)-A-Ile(Me)-LSSINVGSNT-Apr-NH2] ({C20 diacid-γGlu}-RCNTATCATQRLAHFLHRSSNNF[Sar]A[NMeI]LSSTNVGSNT[Pro(4R-NH2)]-NH2; disulfide 2-7) | FND | FND | FND | B (B = 70-90%) | C (C = <70%) | C (C = <70%) | – | – | – | – |
| CC[C@H](C)[C@H](NC(=O)[C@@H]1CCCN1C(=O)CNC(=O)[C@H](Cc1ccccc1)NC(=O)[C@H](CO)NC(=O)[C@H](CO)NC(=O)[C@H](Cc1c[nH]cn1)NC(=O)[C@H](Cc1c[nH]cn1)NC(=O)[C@H](CC(C)C)NC(=O)[C@H](Cc1ccccc1)NC(=O)[C@H](CCC(=O)O)NC(=O)[C@H](C)NC(=O)[C@H](CC(C)C)NC(=O)[C@H](CCCNC(=N)N)NC(=O)[C@H](CCC(N)=O)NC(=O)[C@@H](NC(=O)[C@H](C)NC(=O)[C@@H]1CSSC[C@H](NC(=O)[C@H](CCCNC(=N)N)NC(=O)CC[C@H](NC(=O)CCCCCCCCCCCCCCCCCCC(=O)O)C(=O)O)C(=O)N[C@@H](CC(N)=O)C(=O)N[C@@H]([C@@H](C)O)C(=O)N[C@@H](C)C(=O)N[C@@H]([C@@H](C)O)C(=O)N1)[C@@H](C)O)C(=O)N[C@@H](CC(C)C)C(=O)N1CCC[C@H]1C(=O)N1CCC[C@H]1C(=O)N[C@H](C(=O)N[C@@H](CC(N)=O)C(=O)N[C@H](C(=O)NCC(=O)N[C@@H](CO)C(=O)N[C@@H](CC(N)=O)C(=O)N[C@H](C(=O)N1CCC[C@H]1C(N)=O)[C@@H](C)O)C(C)C)[C@@H](C)O [Compound 97, reference compound] ({C20 diacid-γGlu}-RCNTATCATQRLAEFLHHSSFGPILPPTNVGSNTP-NH2; disulfide 2-7) | – | – | – | – | – | – | A (A = >90%) | A (A = >90%) | A (A = >90%) | A (A = >90%) |
| CC[C@H](C)[C@H](NC(=O)[C@@H]1CCCN1C(=O)CNC(=O)[C@H](Cc1ccccc1)NC(=O)[C@H](CC(N)=O)NC(=O)[C@H](CC(N)=O)NC(=O)[C@H](CO)NC(=O)[C@H](CO)NC(=O)[C@H](Cc1c[nH]cn1)NC(=O)[C@@H](NC(=O)[C@H](CC(C)C)NC(=O)[C@H](Cc1ccccc1)NC(=O)[C@H](CC(N)=O)NC(=O)[C@H](C)NC(=O)[C@H](CC(C)C)NC(=O)[C@H](CCCNC(=N)N)NC(=O)[C@H](CCC(N)=O)NC(=O)[C@@H](NC(=O)[C@H](C)NC(=O)[C@@H]1CSSC[C@H](NC(=O)[C@@H](N)CCCCN)C(=O)N[C@@H](CC(N)=O)C(=O)N[C@@H]([C@@H](C)O)C(=O)N[C@@H](C)C(=O)N[C@@H]([C@@H](C)O)C(=O)N1)[C@@H](C)O)C(C)C)C(=O)N[C@@H](CC(C)C)C(=O)N1CCC[C@H]1C(=O)N1CCC[C@H]1C(=O)N[C@H](C(=O)N[C@@H](CC(N)=O)C(=O)N[C@H](C(=O)NCC(=O)N[C@@H](CO)C(=O)N[C@@H](CC(N)=O)C(=O)N[C@H](C(=O)N[C@@H](Cc1ccc(O)cc1)C(N)=O)[C@@H](C)O)C(C)C)[C@@H](C)O [Pramlintide, reference compound] | FD | – | FD | – | – | – | – | – | – | – |

More lines, now with the values ahead:

| Fibrillation pH 4.0 (Ac) [1] | Fibrillation pH 7.0 (His) [1] | Fibrillation pH 7.0 (Phos.) [1] | Normalized purity after 7 days, 40° C., pH 4 [2] | Normalized purity after 7 days, 40° C., pH 7.5 [2] | Normalized purity after 7 days, 40° C., pH 9 [2] | Normalized purity pH 4 (Table 5) ([2]; pH 4, repeat of Example 6 for pairs with/without Asn-Asn at 21-22) | Normalized purity pH 6 (Table 5) ([2]; pH 6, repeat of Example 6 for pairs with/without Asn-Asn at 21-22) | Normalized purity pH 7.5 (Table 5) ([2]; pH 7.5, repeat of Example 6 for pairs with/without Asn-Asn at 21-22) | Normalized purity pH 9 (Table 5) ([2]; pH 9, repeat of Example 6 for pairs with/without Asn-Asn at 21-22) | Structure (SMILES) |
| --- | --- | --- | --- | --- | --- | --- | --- | --- | --- | --- |
| FND | FD | FND | A (A = >90%) | A (A = >90%) | B (B = 70-90%) | – | – | – | – | CC[C@H](C)[C@@H](C(=O)N[C@@H](CC(C)C)C(=O)N[C@@H](CO)C(=O)N[C@@H](CO)C(=O)N[C@H](C(=O)N[C@@H](CCC(=O)O)C(=O)N[C@H](C(=O)NCC(=O)N[C@@H](CO)C(=O)N[C@@H](CCC(=O)O)C(=O)N[C@H](C(=O)N1CCC[C@H]1C(N)=O)[C@@H](C)O)C(C)C)[C@@H](C)O)N(C)C(=O)[C@H](C)NC(=O)CN(C)C(=O)[C@H](Cc1ccccc1)NC(=O)[C@H](CO)NC(=O)[C@H](CO)NC(=O)[C@H](CCCNC(=N)N)NC(=O)[C@H](Cc1c[nH]cn1)NC(=O)[C@H](CC(C)C)NC(=O)[C@H](Cc1ccccc1)NC(=O)[C@H](Cc1c[nH]cn1)NC(=O)[C@H](C)NC(=O)[C@H](CC(C)C)NC(=O)[C@H](CCCNC(=N)N)NC(=O)[C@H](CCC(N)=O)NC(=O)[C@@H](NC(=O)[C@H](C)NC(=O)[C@@H]1CSSC[C@H](NC(=O)[C@H](CCCNC(=N)N)NC(=O)CC[C@H](NC(=O)CCCCCCCCCCCCCCCCCCC(=O)O)C(=O)O)C(=O)N[C@@H](CC(N)=O)C(=O)N[C@@H]([C@@H](C)O)C(=O)N[C@@H](C)C(=O)N[C@@H]([C@@H](C)O)C(=O)N1)[C@@H](C)O [Compound 2, [19CD]-isoGlu-R-C( )-NTAT-C( )-ATQRLAHFLHRSSF-Gly(Me)-A-Ile(Me)-LSSTEVGSETP-NH2] ({C20 diacid-γGlu}-RCNTATCATQRLAHFLHRSSF[Sar]A[NMeI]LSSTEVGSETP-NH2; disulfide 2-7) |
| FD | FD | FD | A (A = >90%) | B (B = 70-90%) | B (B = 70-90%) | – | – | – | – | CC[C@H](C)[C@@H](C(=O)N[C@@H](CC(C)C)C(=O)N[C@@H](CO)C(=O)N[C@@H](CO)C(=O)N[C@H](C(=O)N[C@@H](CCC(=O)O)C(=O)N[C@H](C(=O)NCC(=O)N[C@@H](CO)C(=O)N[C@@H](CCC(=O)O)C(=O)N[C@H](C(=O)N1CCC[C@H]1C(N)=O)[C@@H](C)O)C(C)C)[C@@H](C)O)N(C)C(=O)[C@H](C)NC(=O)CN(C)C(=O)[C@H](Cc1ccccc1)NC(=O)[C@H](CO)NC(=O)[C@H](CO)NC(=O)[C@H](CCCNC(=N)N)NC(=O)[C@H](Cc1c[nH]cn1)NC(=O)[C@H](CC(C)C)NC(=O)[C@H](Cc1ccccc1)NC(=O)[C@H](CC(N)=O)NC(=O)[C@H](C)NC(=O)[C@H](CC(C)C)NC(=O)[C@H](CCCNC(=N)N)NC(=O)[C@H](CCC(N)=O)NC(=O)[C@@H](NC(=O)[C@H](C)NC(=O)[C@@H]1CSSC[C@H](NC(=O)[C@H](CCCNC(=N)N)NC(=O)CC[C@H](NC(=O)CCCCCCCCCCCCCCCCCCC(=O)O)C(=O)O)C(=O)N[C@@H](CC(N)=O)C(=O)N[C@@H]([C@@H](C)O)C(=O)N[C@@H](C)C(=O)N[C@@H]([C@@H](C)O)C(=O)N1)[C@@H](C)O [Compound 3, [19CD]-isoGlu-R-C( )-NTAT-C( )-ATQRLANFLHRSSF-Gly(Me)-A-Ile(Me)-LSSTEVGSETP-NH2] ({C20 diacid-γGlu}-RCNTATCATQRLANFLHRSSF[Sar]A[NMeI]LSSTEVGSETP-NH2; disulfide 2-7) |
